Laboratory results from publication PMC10218498, “Exploring BenzylethoxyAryl Urea Scaffolds for Multitarget Immunomodulation Therapies” (International Journal of Molecular Sciences, 2023).

Key:
[1] = system: HT-29 (colon adenocarcinoma); experiment: MTT cell proliferation assay, HT-29; format: cell-based, human; settings: for IC50: Homo sapiens, HT-29, 48 h of treatment, read-out: IC50 HT-29; for IC50 / effect on cancer cell proliferation (HT-29), in words: MTT
Description: (§1) The 3-(4,5-dimethylthiazol-2-yl)-2,5-diphenyltetrazolium bromide (MTT; Sigma Chemical Co.) dye reduction assay in 96-well microplates was used. […] After that, the supernatant was discarded and replaced by 100 µL of DMSO to dissolve formazan crystals. The absorbance was then read at 550 nm by spectrophotometry. For all concentrations of compound, cell viability was expressed as the percentage of the ratio between the mean absorbance of treated cells and the mean absorbance of untreated cells. Three independent experiments were performed, and the IC50 values (i.e., concentration half inhibiting cell proliferation) were graphically determined using GraphPad Prism 4 software.

[2] = system: A-549 (pulmonary adenocarcinoma); experiment: MTT cell proliferation assay, A-549; format: cell-based, human; settings: for IC50: Homo sapiens, A549, 48 h of treatment, read-out: IC50 A-549; for IC50 / effect on cancer cell proliferation (A-549), in words: MTT
Description: as §1

[3] = system: HEK-293 (human embryonic kidney cells); experiment: MTT cell proliferation assay, HEK-293; format: cell-based; settings: HEK293, 48 h of treatment
Description: (§2) This assay allowed us to establish the corresponding IC50 values (expressed as the concentration, in μM, at which 50% of cell viability is achieved), shown in Table 1.
(§3) In 96-well plates, 5 × 10^3 (HT-29, MCF-7, A549, HMEC-1, Jurkat, and HEK-293) cells per well were incubated with serial dilutions of the tested compounds in a total volume of 100 μL of their respective growth media. The 3-(4,5-dimethylthiazol-2-yl)-2,5-diphenyltetrazolium bromide (MTT; Sigma Chemical Co.) dye reduction assay in 96-well microplates was used. After 2 days of incubation (37 °C, 5% CO2 in a humid atmosphere), 10 μL of MTT (5 mg/mL in phosphate-buffered saline, PBS) was added to each well, and the plate was incubated for a further 3 h (37 °C). After that, the supernatant was discarded and replaced by 100 µL of DMSO to dissolve formazan crystals. The absorbance was then read at 550 nm by spectrophotometry. For all concentrations of compound, cell viability was expressed as the percentage of the ratio between the mean absorbance of treated cells and the mean absorbance of untreated cells. Three independent experiments were performed, and the IC50 values (i.e., concentration half inhibiting cell proliferation) were graphically determined using GraphPad Prism 4 software.

Jurkat T cells = experiment: MTT cell proliferation assay, Jurkat T cells; format: cell-based; settings: Homo sapiens, 48 h of treatment
Description: as §2, §3

[4] = system: human microvessel endothelial cells (HMEC-1); experiment: MTT cell proliferation assay, HMEC-1; format: cell-based; settings: 48 h of treatment
Description: as §2, §3

PD-L1 [5] = target: T1, PD-L1 (Homo sapiens, UniProt Q9NZQ7); experiment: PD-L1 relative quantification by flow cytometry in A-549; format: cell-based; parameters: endogenous in cells; host or cells: A-549; settings: A-549, 20 µM, 24 h, relative to DMSO control = 100
T1 sequence (Q9NZQ7 19-290): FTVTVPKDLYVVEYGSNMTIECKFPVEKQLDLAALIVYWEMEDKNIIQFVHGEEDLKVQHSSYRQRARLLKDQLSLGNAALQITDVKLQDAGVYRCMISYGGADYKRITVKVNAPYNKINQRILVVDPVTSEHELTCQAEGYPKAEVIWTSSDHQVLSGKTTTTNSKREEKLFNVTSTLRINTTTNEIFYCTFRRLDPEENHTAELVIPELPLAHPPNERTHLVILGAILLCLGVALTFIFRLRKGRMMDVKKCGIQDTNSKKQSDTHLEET
Description: (§4) To assess the effect of the selected compounds on the biological targets PD-L1 and VEFGR-2, we performed the study on both cancer cell lines HT-29 and A-549 and by flow cytometry technique. […] For these assays, cells were incubated for 24 h in the presence of the corresponding compounds at 20 µM concentration.
(§5) To study the effect of the compounds on every biological target in cancer cell lines, the compounds were used at 20 µM dose.
(§6) For the assay, 10^5 cells per well were incubated for 24 h with the corresponding dose of the tested compound in a total volume of 500 μL of their growth media.
(§7) On the one hand, to detect total PD-L1 and VEGFR-2, after the cell treatments, they were collected and fixed with 4% in PBS paraformaldehyde. After fixation, a treatment with 0.5% in PBS TritonTM X-100 was performed, and finally, cells were stained with FITC Mouse monoclonal Anti-Human VEGFR-2 (ab184903) and Alexa Fluor® 647 Rabbit monoclonal Anti-PD-L1 (ab215251).
(§8) On the other hand, to detect membrane PD-L1 and VEGFR-2, the process was the same, avoiding the treatment with 0.5% in PBS TritonTM X-100 step.

[6] = system: MCF-7 (Human breast cancer adenocarcinoma); experiment: MTT cell proliferation assay, MCF-7; format: cell-based; settings: Homo sapiens, MCF7; MTT; read-out: IC50 (μM) MCF-7
Description: as §1

[7] = system: HMEC-1 microtube formation; experiment: Tube formation inhibition assay on Matrigel; format: cell-based, human; settings: HMEC-1 on Matrigel, 24 h
Description: The capacity to inhibit the formation of a new vasculature network formed by HMEC-1 was evaluated on compounds 8 and 14 at different concentrations.
Wells of an IBIDI μ-slide angiogenesis (IBIDI, Martinsried, Germany) were coated with 15 μL of Matrigel® (10 mg/mL, BD Biosciences) at 4 °C. After gelatinization at 37 °C for 30 min, HMEC-1 cells were seeded at 2 × 10^4 cells/well in 25 μL of culture medium on top of the Matrigel and were incubated 30 min at 37 °C while are attached. Then, compounds were added and dissolved in 25 μL of culture medium, and after 24 h of incubation at 37 °C, tube formation was evaluated.

PD-L1 [8] = target: T1, PD-L1; experiment: PD-L1 relative quantification by flow cytometry in MCF-7; format: cell-based; parameters: endogenous in cells; host or cells: MCF-7; settings: MCF-7, 20 µM, 24 h, control = 100
Description: In view of the good results obtained for these selected compounds, we decided to extend the study to a third cancer cell line, MCF-7 (Human breast cancer adenocarcinoma). First, we determined the IC50 values of the derivatives and their SI indexes (see Table 4). Then, we determined the effect of the selected compounds on the biological targets, PD-L1 and VEGFR-2, by flow cytometry. […] As usually, the assay was performed at a concentration of 20 µM for 24 h.
as §5, §6, §7, §8

PD-L1 [9] = target: T1, PD-L1; experiment: PD-L1 relative quantification by flow cytometry in HT-29; format: cell-based; parameters: endogenous in cells; host or cells: HT-29; settings: HT-29, 20 µM, 24 h, relative to DMSO control = 100
Description: as §4, §5, §6, §7, §8

LCK = experiment: Immunoblotting of OT-1 CTL signaling proteins: LCK; format: cell-based, mice; settings: OT-1, 20 μM, 24 h
Text: (§9) We next studied the effect of our compounds on the signaling cascade downstream of the TCR. […] However, both the expression and phosphorylation of LCK were increased in response to all compounds. The effects on ZAP70 and LAT were more complex, with opposing effects on total protein expression versus phosphorylation. Thus, all compounds modulated signaling downstream of the TCR in a manner that is likely to impact T-cell activation and activity.
(§10) CD8+ cells were obtained from the inguinal, axillary, brachial, and mesenteric lymph nodes previously collected from OT-1 mice. Lymph node cells were isolated by mashing through a […] cell strainer. Cells were resuspended in IMDM cell media at a concentration of 0.3 million cells/mL. N4 ovalbumin peptide was added at a concentration of 10 nM, and cells were incubated for 48 h at 5% CO2, 37 °C. On day 2 from recollection, cells were pelleted at 1300 rpm for 5 min and washed with PBS to remove N4 peptide. The cell pellet was resuspended in fresh IMDM media in a new flask in a 0.3 million cells/mL and supplemented with IL-2 at 20 ng/mL. After incubation for a further 48 h (day 4), cells were re-seeded in fresh IMDM media at a concentration of 0.3 million cells/mL supplemented with IL-2 at 20 ng/mL. Cells were cultured for a further 48 h prior to use on day 6 in functional assays.
(§11) To study the effect of the compounds in the signaling pathway of CTLs, the compound was incubated for 24 h at 20 μM. After this time, cells were collected and washed twice in PBS and lysed in radioimmunoprecipitation assay (RIPA) lysis buffer (50 mM tris-HCl at pH 7.4, 150 mM sodium chloride, 5 mM EGTA, 0.1% SDS, 1% NP-40, and 1% deoxycholate) supplemented with a protease and phosphatase inhibitor cocktail (mini complete ULTRA Protease tablet and phosSTOP tablet from Roche, Basel, Switzerland). Lysates were clarified by high-speed centrifugation (17,000 rpm for 15 min at 4 °C). Protein concentration was measured using a Micro BCA Protein Assay (Thermo Scientific, Waltham, MA, USA), and 10 μg to 30 μg of total protein were supplemented with 2X SDS sample buffer [tris (pH 6.8), 20% glycerol, 5% SDS, b-mercaptoethanol, and bromophenol blue) and boiled at 95 °C for 5 min. […] Bound Ab was detected by incubation with anti-rabbit and anti-mouse horseradish peroxidase secondary Ab (Cell Signaling Technology) and visualized using the Bio-Rad ChemiDoc MP Imaging System.

Fyn = experiment: Immunoblotting of OT-1 CTL signaling proteins: FYN; format: cell-based, mice; settings: OT-1, 20 μM, 24 h
Text: as §9, §10, §11

SMILES | IC50 [1] [µM] | IC50 [2] [µM] | IC50 (Jurkat T cells) [µM] | melting point [°C] | IC50 [3] [µM] | IC50 [4] [µM] | effect on cancer cell proliferation (HT-29), in words [1] | effect on cancer cell proliferation (A-549), in words [2] | other results
COc1ccc(COc2cccc(NC(=O)Nc3ccc(Cl)cc3)c2)cc1 [Compound 5] | 12 ± 4 | 15 ± 2 | > 100 |  | > 100 | > 100 |  |  | SI (HT-29) (IC50HEK293/IC50HT-29) ([1]; selectivity index): >8; SI (A-549) (IC50HEK293/A-549) ([2]; selectivity index): >7
COc1ccc(COc2cccc(NC(=O)Nc3ccccc3)c2)cc1 [Compound 1] | 21 ± 10 | 6 ± 3 | > 100 |  | 1.4 ± 0.2 | > 100 |  |  | 
COc1ccc(COc2cccc(NC(=O)Nc3cccc(F)c3)c2)cc1 [Compound 3] | > 100 | > 100 | > 100 | 202 to 203 | 3.7 ± 0.8 | > 100 | no effect | no effect | 
CCN(CC)CCNC(=O)c1c(C)[nH]c(/C=C2\C(=O)Nc3ccc(F)cc32)c1C [Sunitinib, sunitinib, reference compound] |  |  |  |  |  |  |  |  | Minimum Active Conc. (inhibition of microtube formation) [7]: 3 µM
COc1ccc(COc2cccc(NC(=O)Nc3cccc(OC)c3)c2)cc1 [Compound 12] | > 100 | > 100 | > 100 | 137.5 to 168.9 | 12 ± 1 | > 100 | no effect | no effect | 
COc1ccc(COc2cccc(NC(=O)Nc3cccc(Cl)c3)c2)cc1 [Compound 6] | 38 ± 15 | > 100 | > 100 |  | 3.3 ± 0.5 | > 100 | only active in HT-29 |  | 

Second part, led by results:

IC50 [1] [µM] | IC50 [2] [µM] | IC50 (Jurkat T cells) [µM] | melting point [°C] | SMILES | IC50 [3] [µM] | IC50 [4] [µM] | effect on cancer cell proliferation (HT-29), in words [1] | effect on cancer cell proliferation (A-549), in words [2] | other results
> 100 | > 100 | > 100 | 160 to 161.6 | COc1ccc(COc2cccc(NC(=O)Nc3ccccc3OC)c2)cc1 [Compound 13] | > 100 | > 100 | no effect | no effect | 
17 ± 4 | 27 ± 2 |  |  | CNC(=O)c1cc(Oc2ccc(NC(=O)Nc3ccc(Cl)c(C(F)(F)F)c3)cc2)ccn1 [Sorafenib, sorafenib, reference compound] | 5 ± 0.7 | 34 ± 3 |  |  | Total PD-L1 (%) (PD-L1 [5]): 102 ± 10%; IC50 [6]: 14 ± 4 µM; Minimum Active Conc. (inhibition of microtube formation) [7]: 10 µM; % PD-L1 Memb. (PD-L1 [8]): 89 ± 2%; % PD-L1 Total (PD-L1 [8]): 80 ± 13%; Total PD-L1 (%) (PD-L1 [9]): 96 ± 49%
25 ± 2 | 3.9 ± 0.4 | > 100 | 198.5 | COc1ccc(COc2cccc(NC(=O)Nc3cccc(Br)c3)c2)cc1 [Compound 9] | 0.7 ± 0.3 | > 100 |  |  | LCK protein expression (Western blot quantification) (LCK): 180; pY394-LCK protein expression (Western blot quantification) (LCK): 175; pY505-LCK protein expression (Western blot quantification) (LCK): 154; FYN protein expression (Western blot quantification) (Fyn): 108
50 ± 4 | 48 ± 3 | > 100 | 183.4 | COc1ccc(COc2cccc(NC(=O)Nc3ccccc3Cl)c2)cc1 [Compound 7] | 27 ± 9 | > 100 |  |  | 
> 100 | > 100 | > 100 | 185 to 186 | COc1ccc(COc2cccc(NC(=O)Nc3ccccc3F)c2)cc1 [Compound 4] | 16 ± 4 | > 100 | no effect | no effect | 
41 ± 5 | 25 ± 1 | > 100 | 198.5 | COc1ccc(COc2cccc(NC(=O)Nc3ccccc3Br)c2)cc1 [Compound 10] | 8.7 ± 0.7 | > 100 |  |  | 
